Reference: PubChem BioAssay (NCI)
Values joined by “and” are separate entries in the source; they are usually repeats but may differ in a detail not shown here. Identical values can stand only once.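 Step 1: Grow cells in 96-well plates. Step 2: Expose to compound for 48 hours at 5 concentrations. Step 3: Interpolate endpoints linearly; if unreached, use highest concentration. The concentration for 50% growth inhibition is given as GI50. Definition used: TGI = concentration required for complete inhibition of growth.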

Tests used:
Experiment in all cases: growth of human tumour cells (NCI), 48 h
OVCAR-5 ovarian = system: OVCAR-5 ovarian
HCT-116 colon = system: HCT-116 colon
OVCAR-4 ovarian = system: OVCAR-4 ovarian
SN12C renal = system: SN12C renal
HL-60(TB) leukemia = system: HL-60(TB) leukemia
CCRF-CEM leukemia = system: CCRF-CEM leukemia
OVCAR-3 ovarian = system: OVCAR-3 ovarian
SNB-19 CNS = system: SNB-19 CNS
RXF 393 renal = system: RXF 393 renal
UO-31 renal = system: UO-31 renal

Compound	TGI (OVCAR-5 ovarian)	TGI (HCT-116 colon)	TGI (OVCAR-4 ovarian)	TGI (SN12C renal)	TGI (HL-60(TB) leukemia)	TGI (CCRF-CEM leukemia)	TGI (OVCAR-3 ovarian)	TGI (SNB-19 CNS)	TGI (RXF 393 renal) [µM]	TGI (UO-31 renal)	GI50 (OVCAR-5 ovarian) [nM]	GI50 (HCT-116 colon) [nM]	GI50 (OVCAR-4 ovarian) [nM]	GI50 (SN12C renal) [µM]	GI50 (HL-60(TB) leukemia) [nM]	GI50 (CCRF-CEM leukemia) [nM]	GI50 (OVCAR-3 ovarian) [nM]	GI50 (SNB-19 CNS) [nM]	GI50 (UO-31 renal) [nM]
COc1c(O)c(OC)c(C(=O)/C=C/c2ccccc2)c(O)c1OC	> 100 µM	34.5 µM	> 100 µM	32.6 µM	> 100 µM	> 100 µM	51.3 µM	> 100 µM											
N#Cc1c2c(c(N=[N+]=[N-])n3c1nc1ccccc13)CCCC2	16.8 µM	3.51 µM	5.33 µM	4.22 µM	8.6 µM		10.3 µM	7.84 µM	3.19	4.55 µM									
CN1CC2(CCCCC2)C(O)C12C=CCCC2 (stereo not drawn)				> 100 µM	> 100 µM	> 100 µM	> 100 µM	> 100 µM	> 100	> 100 µM									
O=C(OCc1ccccc1CN1CCOCC1)c1ccc(Br)cc1	> 100 µM	> 100 µM	> 100 µM	> 100 µM			83.2 µM	> 100 µM	> 100	> 100 µM									
O=C1OCC(C(=O)c2cccc(O)c2)C1=O (stereo not drawn)	> 100 µM	> 100 µM	> 100 µM	> 100 µM			> 100 µM	> 100 µM	> 100	> 100 µM									
CO[C@H]1C=C[C@]23c4cc5c(cc4CN(CC2O)[C@@H]3C1)OCO5 (stereo partly drawn)	> 100 µM	19.3 µM	11.3 µM	29.4 µM	0.32 µM		22.3 µM	40.9 µM		8.47 µM									
O=C1c2c(O)cccc2C(C(=O)CCCCC(=O)C2c3cccc(O)c3C(=O)c3c(O)cccc32)c2cccc(O)c21	1.22 µM and 1.85 µM	2.1 µM and 6.82 µM	1.74 µM and 2.31 µM	3.89 µM and 9.64 µM	1.14 µM and 1.67 µM	2.65 µM and 2.61 µM	1.3 µM and 2.53 µM	1.35 µM and 1.89 µM		1.01 µM and 2.38 µM	961	1930	1210	3.31	744	1200	1390	529	1110
CCC1OCCN1C(C)C (stereo not drawn)	> 100 µM	> 100 µM		> 100 µM	> 100 µM	> 100 µM		> 100 µM	> 100	> 100 µM									
O=c1c2ccccc2nc(-c2ccccc2)n1NCC1(O)OCC(O)C(O)C1O (stereo not drawn)	> 100 µM	> 100 µM	> 100 µM	> 100 µM	> 100 µM	> 100 µM	> 100 µM	> 100 µM		> 100 µM									
